# Reference: US8846653B2, “Delta-tocotrienol treatment and prevention of pancreatic cancer” (University of South Florida, priority 2006, dated 2014)
# Key:
# [1] = system: Caspase 8, Caspase 3, PARP, cytochrome C, caspase 9; assay: Immunoblot for biomarkers of apoptosis (caspase cascade); type: cell-based, human; details: MIA PaCa2, 20 μM
# Procedure: An aliquot of the cells were collected and cells lysed. The lysate was then run on a Western blot and cleavage of caspase 8, caspase 3, and PARP detected.
# In addition to its chemopreventive effects, δ-Tocotrienol induces apoptosis in pancreatic cancer. MIA PaCa2 cells were treated with either δ-tocotrienol or vehicle for 24 hours. Cells were collected and stained with annexin V-FITC and analyzed by flow cytometry for apoptosis. […] MIA PaCa2 cells and HPDE 6C7 cells were treated with vehicle or δ-tocotrienol (20 μM) for 24 hours, then harvested and stained for TUNEL. […] Cell lysates were prepared from MIA PaCa2 cells treated with 8-tocotrienol (20 μM) at progressive time intervals and proteins from lysates were run by SDS PAGE and immunoblotted for biomarkers of apoptosis.
# [2] = system: MIA PaCa2 xenografts; assay: MIA PaCa2 luciferase xenograft tumor growth in nude mice; type: in vivo; details: 100 mg/kg/day by gavage
# Procedure: (§1) Rate of growth by day 10 of treatment is less in the tocotrienol treatment group. Stable transfectants of MIA PaCa2 cells with luciferase were injected subcutaneously into nude mice. Tumor volumes were measured every 2 days with calibers and the rate of growth was determined weekly by measuring tumor luminescence using the IVIS 100 Xenogen system. Tumors of similar volume (100-150 mm^3) and rate of growth based on luminescence were randomized to receive either vehicle or δ-tocotrienol (100 mg/kg/day) by gavage for 20 days.
# as §1, with “Stable” for “Rate of growth by day 10 of treatment is less in the tocotrienol treatment group. Stable”, “mice. Mice were treated with either rice bran oil (vehicle) or δ-tocotrienol (100 mg/kg/day) via gavage five times per week.” for “mice.”
# [3] = Plasma and mouse tissue levels by HPLC-UV; type: in vivo
# Source text: FIG. 52 is a graph showing tissue levels of delta-tocotrienol. *p=0.0044; # p=0.0034; † p=0.0181.
# [4] = system: oncogenic Ras signaling targets in tumors; assay: Immunohistochemical staining of extracted xenograft tumors; type: in vivo, mice
# Procedure: FIGS. 50A and B are immunohistochemical stains of the effects of δ-tocotrienol on oncogenic Ras signaling targets. […] A. A comparison of H&E, Ki67, and p-MAPK staining of control versus delta-tocotrienol treated MIA PaCa2 cells. B. A comparison of p-AKT, p27^kip1, and TUNEL staining of control versus delta-tocotrienol treated cells.
# Tumors were extracted on the last day of treatment and imbedded in paraffin. Immunohistochemical staining was performed to determine the effects of δ-tocotrienol on oncogenic Ras signaling targets. […] Furthermore, the biomarker proteins p-MAPK and p-AKT were decreased and p27^kip1 expression was increased in δ-tocotrienol treated tumors. […] This is associated with inhibition of AKT signaling targets. Moreover, overexpression of myr AKT in Pancreatic Cancer cells rescues the effect δ-Tocotrienol induces apoptosis in vitro and in vivo.
# [5] = system: p-AKT; assay: Immunoblot for p-AKT and AKT; type: cell-based, human; details: MIA PaCa2 and SW1990, 20 μM, 24 and 48 hours
# Procedure: The Ras effector pathways Raf-MEK-ERK and PI3 kinase-AKT are important for cell proliferation and survival, respectively. Pancreatic cancer cell lines (MIA PaCa2, SW1990, BXPC3) and HPDE 6C7 cells were treated with 8-tocotrienol (20 μM) and cell lysates were collected and prepared at progressive time intervals as described above. Proteins from lysates were run by SDS PAGE and immunoblotted with the following antibodies: Ras, p-cRaf (ser 338), p-MEK1/2, MEK1/2, pERK 44/42, ERK 44/42 (Cell Signaling) and c-Raf (BD Transduction Laboratories). […] The MIA PaCa2 and SW1990 cells were then tested for AKT inhibition. The cells were treated with δ-tocotrienol (20 μM) for 24 and 48 hours and cell lysates were run by SDS-PAGE and immunoblotted for p-AKT and AKT (Cell Signaling). […] Taken together, the inhibition of downstream effectors of oncogenic Ras signaling by δ-tocotrienol without an effect on Ras protein levels may indicate a negative regulatory role of 8-tocotrienol on the function of oncogenic Ras. The pancreatic ductal epithelial cell proliferative inhibition by δ-tocotrienol was tested to see if it occurs through blocking aberrant signal transduction cascades. […]
# [6] = system: MIA PaCa2 cells; assay: Proliferation by MTT, increasing concentrations of δ-tocotrienol; type: cell-based, human; details: MIA PaCa2, at 24 hours; read-out: IC50 (inhibition of proliferation, MTT)
# Procedure: FIG. 22 is a graph wherein MIA PaCa2 pancreatic cancer cells (3×10^3) were plated in 96 well plates and treated the following day with δ-tocotrienol. Proliferation was assessed by MTT at 24 hour intervals. […] HPDE 6C7 cells were also treated with increasing concentrations of δ-tocotrienol for 24 hours.
# MIA PaCa2, SW1990, BXPC3, and HPDE 6C7 cells (3×10^3) were cultured as described in the Examples above, in 96-well plates and treated the following day with increasing concentrations of δ-tocotrienol.
# [7] = system: MIA PaCa-2 cells (pZWL vector and myrAKT); assay: Cell death (trypan blue) in vector and myrAKT MIA PaCa-2 cells; type: cell-based, human; details: MIA PaCa-2 vector vs myr-AKT cells, 24 hours, compared to vehicle
# Procedure: FIG. 12 is a graph wherein MIA PaCa-2 cells (pZWL vector and myrAKT) were treated without serum vehicle or δ-tocotrienol (50 μM) for 24 hours, with and without a 10-hour caspase 8/3 inhibitor pretreatment. Cells were also treated with TRAIL as a positive control. Cells were then harvested, fixed, permeablized and stained with trypan blue.
# To further identify the role of AKT in the apoptotic pathways noted in Example 2, functional overexpression of CA-AKT was analyzed in Mia-PaCa2 pancreatic cancer cells. MIA PaCa-2 cells were treated with pZWL vector and myrAKT, a retroviral vector encoding myristoylated AKT, with or without serum, vehicle, or δ-tocotrienol (40 or 50 μM) for 24 hours, with and without a 10-hour caspase 8 inhibitor pretreatment. Cells were also treated with TRAIL as a positive control. Cells were then harvested, fixed, permeablized and stained with trypan blue.
# The myristoylated AKT rescued δ-tocotrienol suppression PI3K-AKT signaling. The MiaPaCa-2 parental cell lines were stably transfected using constitutively active myristoylated AKT in a pWZL vector construct to generate MiaPaCa-2AKT cells. […] Lastly, pretreatment with caspase 3, 8 and 9 inhibitors rescued tocotrienol induced cell death.
# [8] = tumors from treated mice vs control group
structure (smiles),measurement,setting,value
"CC(C)=CCC/C(C)=C/CC/C(C)=C/CC[C@]1(C)CCc2cc(O)cc(C)c2O1 [T3 delta, delta tocotrienol]","mitochondrial pro-apoptotic proteins (cytochrome C release, cleavage of caspase 9)",[1],no significant effect
same,"caspase cascade: cleavage of caspase 8, caspase 3, PARP",[1]; time dependent,activation of the caspase cascade
same,rate of growth by tumor luminescence,[2]; day 10 of treatment,significantly less
same,reduction in tumor growth,"[2]; nude mice, vs vehicle",50%
same,plasma level,[3]; mouse plasma,detectable in plasma
same,localization in the pancreas compared to liver and pancreatic tumor levels (factor),[3]; mouse tissue,10
same,p27^kip1 expression,[4]; treated tumors,increased
same,p-AKT,[4]; treated tumors,decreased
same,p-MAPK,[4]; treated tumors,decreased
same,Ki67 staining (proliferation),[4]; [8],decrease in Ki67
same,TUNEL staining (apoptosis),[4]; [8],induction of apoptosis
same,p-AKT protein levels,[5],decrease in p-AKT protein levels
same,IC50,[6],20 to 25 µM
same,cell death,[7],induced more cell death in the vector cells than the myr-AKT cells
